# Values quoted from earlier work as cited in patent US6589787B2, “T-type calcium channel variants; compositions thereof; and uses” (Syntex (U.S.A.) LLC, priority 1998, dated 2003).
# Test system: T-type Ca^2+ current
# Settings: freshly dissected neurons from dorsal root ganglia (DRG neurons) of adult rats
smiles,measurement,value
CCC1(C)CC(=O)NC1=O (stereo not shown) [ethosuximide],block of T-type Ca^2+ current,fully block
